Source: patent US10106529B2, “Compounds that modulate intracellular calcium” (CalciMedica, Inc., priority 2011, dated 2018)

Test system: RBL-2H3 cells
Assay: Fluorescence-based assay of store-operated calcium entry in RBL-2H3 cells
Type: cell-based, rat
Settings: Rattus norvegicus, thapsigargin, inhibition of Upslope of fluorescence after calcium addition, read-out: RBL-2H3 (IC50, μmol)
Description: Fluorescence-based assays are used for screening the compounds described herein, such as compounds of Formulas (I), (IA), (II), (IIA), (III), (IIIA), (IV), (IVA), (V), (VA), (VI), (VIA), (VII), (VIIA), (VIII), (VIIIA), (IX), (IXA), (X), (XI), (XIA), (XII), or (XIIA) which modulate intracellular calcium.
B. Fluorescence-Based Assay of Store-Operated Calcium Entry in RBL-2H3 Cells.
RBL-2H3 cells are obtained from ATCC and maintained in complete medium with 10% FBS at 37° C./6% CO2.
The day prior to performing the assay, RBL-2H3 cells are plated in 50 μL of complete medium in a 384 well plate. Cells are grown at 37° C./6% CO2 overnight and grow to 50-60% confluence by the next day. On the assay day, 1.5 µM Fluo-4-AM dye (Invitrogen) in complete medium is added and incubated for 1 hour at RT. Cells are washed twice in Ca^2+-free HBSS buffer and 35 μL Ca^2+-free HBSS buffer is added to each well. 10 μL of a test compound prepared in a Ca^2+-free HBSS solution at 4.5× of the desired concentration is added to a well and incubated for 5 minutes at RT. 10 μL of thapsigargin prepared in a Ca^2+-free HBSS solution at 5.5× of the desired concentration (5.5 uM) is added to each well and incubated for an additional 25 minutes. The initial baseline fluorescence signal is measured with a FLIPR^384 (Molecular Devices) plate reader. 5 μL of 12× calcium in HBSS (12 mM) is added and changes in cellular fluorescence are measured with the FLIPR^384 plate reader. In each well, the change in the fluorescent signal as a function of time due to calcium entry into the cell is determined by calculating the difference between the fluorescent signal measured 7 seconds after calcium addition and the initial baseline fluorescence signal at time zero (t=0). This parameter is designated Upslope. The IC50 value is calculated as the concentration at which 50% of the Upslope is inhibited.

Compound | IC50 [nM]
CCc1ccccc1Oc1ccc(NCc2c(F)cc(F)cc2F)nc1 [Compound 136] | > 1200
Cn1nc(C(F)(F)F)cc1-c1ccc(OCc2c(F)cccc2F)nc1 [Compound 67] | 600 to 1200
Fc1cc(F)c(CNc2ccc(Oc3cc(C(F)(F)F)ccc3C(F)(F)F)cn2)c(F)c1 [Compound 140] | 600 to 1200
Cc1cc2c(cc1-c1cnc(OCc3c(F)cccc3F)nc1)OC(F)(F)O2 [Compound 62] | 600 to 1200
Cc1cc2c(cc1-c1ccc(NCc3c(F)ccc(F)c3F)nc1)OC(F)(F)O2 [Compound 25] | < 600
CCc1ccccc1Oc1ccc(NCc2c(F)cccc2F)nc1 [Compound 137] | > 1200
Fc1cccc(F)c1CNc1ccc(-c2nc3c(cc2Cl)OCCO3)cn1 [Compound 45, 5-(7-chloro-2,3-dihydro-[1,4]dioxino[2,3-b]pyridin-6-yl)-N-(2,6-difluorobenzyl)pyridin-2-amine] | < 600
Cc1sc(C(F)(F)F)nc1-c1ccc(NCc2c(F)cc(F)cc2F)nc1 [Compound 27] | < 600
Fc1cc(F)c(CNc2ccc(Oc3cc(F)ccc3C(F)(F)F)cn2)c(F)c1 [Compound 138] | < 600
CCn1nc(C(F)(F)F)cc1-c1ccc(NCc2c(F)cccc2F)cn1 [Compound 89] | < 600
Fc1cccc(F)c1CNc1ccc(Oc2cc(C(F)(F)F)ccc2C(F)(F)F)cn1 [Compound 141] | < 600
CCn1nc(C(F)(F)F)cc1-c1ccc(NCc2ccccc2F)cn1 [Compound 88] | < 600
Cn1nc(C(F)(F)F)cc1-c1cnc(OCc2c(F)cccc2F)nc1 [Compound 63] | > 1200
Cn1nc(C(F)(F)F)cc1-c1ccc(NCc2c(F)cc(F)cc2F)cn1 [Compound 87] | < 600

Results, then the compound that gave them:

IC50 [nM] | Compound
< 600 | Cc1sc(C(F)(F)F)nc1-c1ccc(NCc2ccccc2F)nc1 [Compound 26]
< 600 | Cn1nc(C(F)(F)F)cc1-c1cnc(NCc2c(F)cccc2F)nc1 [Compound 94, N-(2,6-difluorobenzyl)-5-(1-methyl-3-(trifluoromethyl)-1H-pyrazol-5-yl)pyrimidin-2-amine]
< 600 | Cc1cc2c(cc1-c1cnc(NCc3c(F)cccc3F)nc1)OC(F)(F)O2 [Compound 32, 5-(2,2-difluoro-6-methyl-1,3-benzodioxol-5-yl)-N-[(2,6-difluorophenyl)methyl]pyrimidin-2-amine]
< 600 | Cn1nc(C(F)(F)F)cc1-c1ncc(NCc2c(F)cccc2F)cc1F [Compound 91]
< 600 | Cc1cc2c(cc1-c1ccc(NCc3c(F)cc(F)cc3F)nc1)OC(F)(F)O2 [Compound 24]
< 600 | Cc1cc2c(cc1-c1ccc(OCc3c(F)cccc3F)nc1)OC(F)(F)O2 [Compound 66]
< 600 | Fc1ccc(C(F)(F)F)c(Oc2ccc(NCc3c(F)cncc3F)nc2)c1 [Compound 139]
< 600 | Fc1ccc(C(F)(F)F)c(Oc2ccc(NCc3c(F)cccc3F)nc2)c1 [Compound 133, N-(2,6-difluorobenzyl)-5-(5-fluoro-2-(trifluoromethyl)phenoxy)pyridin-2-amine]
